Assays:
sensorimotor cortex (M1) = assay: Intracortical microstimulation (ICMS) mapping of HL and FL cortical movement representations; type: in vivo, rat
Description: FIG. […]): Perineuronal net inhibitor (PNNi) induces reorganisation of the sensorimotor map (M1) in intact rats. Using intracortical microstimulation (ICMS), mapping of the HL and FL cortical movement representations were used to investigate the functional organisation of the M1 of intact/sham animals after long-term treatment with the prospective plasticity enhancer, […] was performed at stereotaxic coordinates within a right hemisphere craniotomy 5 mm rostral/caudal to bregma (B) (A) 11 weeks post mid-thoracic laminectomy (Sham) or for age-controlled intact rats. Individual ICMS maps were combined to give the representative heat map per group illustrating the percentage of animals for each stereotaxic coordinate where hindlimb (HL; B-D) or forelimb (FL; K-M) movements were able to be elicited. A baseline HL and FL cortical map was generated for Lister Hooded rats (B, K; dotted outlines in B-D, K-M) to compare the functional plasticity of groups with sham surgery (C, L) and with chronic PNNi administration (D, M). Measurements for HL analysis (F-G) are illustrated in E). H) Average area (mm^2) of the HL representation reduced with PNNi treatment. […] Measurements for FL analysis (P-S) are illustrated in O). After PNNi treatment, FL movements were elicited in areas that are not associated with FL or HL movements (see right of the baseline HL map; white dotted outline K-M). […]

rat = conditions: in vivo, po; cited from earlier work
rats, mice and rabbits = conditions: very high doses; cited from earlier work

Cc1cc(=O)oc2cc(O)ccc12 [PNNi, 4-methylumbelliferone]
percentage of FL movements associated with areas previously eliciting HL movements (sensorimotor cortex (M1); SCI plus long-term PNNi, sham control 4.27±1.56%): 23.9±8.01%
total area able to elicit HL movements (sensorimotor cortex (M1); sham animals, long-term treatment): reduced the total area able to elicit HL movements
lethal dose (rat): 6200 mg/kg
teratogenic effect (rats, mice and rabbits): does not seem to have a teratogenic effect

— patent publication US20220380331A1, “TREATMENT OF CONDITIONS OF THE NERVOUS SYSTEM” (priority 2019, published 2022)
